Test results reported in PubChem BioAssay (NCI).
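Dose response: 5 concentrations. Exposure: 48 h. Format: 96-well plates. Endpoint: linear interpolation; highest concentration if not reached. At the TGI there is no net growth.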

Key:
Assay in all cases: inhibition of tumour cell growth, NCI panel, 48 h
[1] = system: 786-0 renal
[2] = system: A498 renal
[3] = system: A549 NSCLC
[4] = system: ACHN renal
[5] = system: BT-549 breast
[6] = system: CAKI-1 renal
[7] = system: CCRF-CEM leukemia
[8] = system: COLO 205 colon
[9] = system: DU-145 prostate
[10] = system: EKVX NSCLC
[11] = system: HCC-2998 colon
[12] = system: HCT-116 colon
[13] = system: HCT-15 colon
[14] = system: HL-60(TB) leukemia
[15] = system: HOP-62 NSCLC
[16] = system: HOP-92 NSCLC
[17] = system: HS 578T breast
[18] = system: HT29 colon
[19] = system: IGROV1 ovarian
[20] = system: K-562 leukemia
[21] = system: KM12 colon
[22] = system: LOX IMVI melanoma
[23] = system: M14 melanoma
[24] = system: MALME-3M melanoma
[25] = system: MCF7 breast
[26] = system: MDA-MB-231 breast
[27] = system: MDA-MB-435
[28] = system: MDA-N
[29] = system: MOLT-4 leukemia
[30] = system: NCI-H226 lung
[31] = system: NCI-H23 lung
[32] = system: NCI-H460 lung
[33] = system: NCI-H522 lung
[34] = system: NCI/ADR-RES ovarian
[35] = system: OVCAR-3 ovarian
[36] = system: OVCAR-4 ovarian
[37] = system: OVCAR-5 ovarian
[38] = system: OVCAR-8 ovarian
[39] = system: PC-3 prostate
[40] = system: RPMI-8226 leukemia
[41] = system: RXF 393 renal
[42] = system: SF-268 CNS
[43] = system: SF-295 CNS
[44] = system: SF-539 CNS
[45] = system: SK-MEL-2 melanoma
[46] = system: SK-MEL-28 melanoma
[47] = system: SK-MEL-5 melanoma
[48] = system: SK-OV-3 ovarian
[49] = system: SN12C renal
[50] = system: SNB-19 CNS
[51] = system: SNB-75 CNS
[52] = system: SR leukemia
[53] = system: SW-620 colon
[54] = system: T-47D breast
[55] = system: TK-10 renal
[56] = system: U251 CNS
[57] = system: UACC-257 melanoma
[58] = system: UACC-62 melanoma
[59] = system: UO-31 renal

Measured: TGI

Cn1c(=O)c2[nH]c(CCCCc3nc4ccccc4[nH]3)nc2n(C)c1=O
> 100 µM: [1] | [2] | [3] | [4] | [5] | [6] | [7] | [8] | [9] | [10] | [11] | [12] | [13] | [14] | [15] | [17] | [18] | [19] | [20] | [21] | [22] | [23] | [24] | [25] | [26] | [27] | [28] | [29] | [30] | [31] | [32] | [33] | [34] | [35] | [36] | [37] | [38] | [39] | [40] | [41] | [42] | [43] | [44] | [45] | [46] | [47] | [48] | [49] | [50] | [51] | [52] | [53] | [54] | [55] | [56] | [57] | [58] | [59]
95.8 µM: [16]

O=C1c2ccccc2C(=O)N1[C@@H](Cc1ccccc1)C(=O)n1cccc1CO
56.6 µM: [41]
> 100 µM: [1] | [2] | [3] | [4] | [5] | [6] | [7] | [8] | [9] | [10] | [11] | [12] | [13] | [14] | [15] | [16] | [17] | [18] | [19] | [20] | [21] | [22] | [23] | [24] | [25] | [26] | [27] | [28] | [29] | [30] | [31] | [32] | [33] | [34] | [35] | [36] | [37] | [38] | [39] | [40] | [42] | [43] | [44] | [45] | [46] | [47] | [48] | [49] | [50] | [51] | [52] | [53] | [54] | [55] | [56] | [57] | [58] | [59]

C=CCN1C(=O)CNC1=S
77.6 µM: [7]
78.9 µM: [14]
> 100 µM: [1] | [2] | [3] | [4] | [5] | [6] | [8] | [9] | [10] | [11] | [12] | [13] | [15] | [16] | [17] | [18] | [19] | [20] | [21] | [22] | [23] | [24] | [25] | [26] | [27] | [28] | [29] | [30] | [31] | [32] | [33] | [34] | [35] | [36] | [37] | [38] | [39] | [40] | [41] | [42] | [43] | [44] | [45] | [46] | [47] | [48] | [49] | [50] | [51] | [52] | [53] | [54] | [55] | [56] | [57] | [58] | [59]
